Experimental data taken from article PMC11169557, “The Goldilocks paradigm: comparing classical machine learning, large language models, and few-shot learning for drug discovery applications” (Communications Chemistry, 2024).
Structures can show the parent of a compound that is named as a salt.

Target: MARK1 (Homo sapiens, UniProt Q9P0L2)
Test: MARK1 inhibition, IC50 determination (dose-response) using Z'-LYTE assay
Type: biochemical
Conditions: for IC50: Z'-LYTE assay, non-linear regression (3-parameters); for Active (Measured): hits of the initial screen followed up with dose-response curves, 1 = true MARK1 inhibitor; for MARK1 inhibitor (result in words): out of the 13 tested compounds

Chain of MARK1 (Q9P0L2 whole entry): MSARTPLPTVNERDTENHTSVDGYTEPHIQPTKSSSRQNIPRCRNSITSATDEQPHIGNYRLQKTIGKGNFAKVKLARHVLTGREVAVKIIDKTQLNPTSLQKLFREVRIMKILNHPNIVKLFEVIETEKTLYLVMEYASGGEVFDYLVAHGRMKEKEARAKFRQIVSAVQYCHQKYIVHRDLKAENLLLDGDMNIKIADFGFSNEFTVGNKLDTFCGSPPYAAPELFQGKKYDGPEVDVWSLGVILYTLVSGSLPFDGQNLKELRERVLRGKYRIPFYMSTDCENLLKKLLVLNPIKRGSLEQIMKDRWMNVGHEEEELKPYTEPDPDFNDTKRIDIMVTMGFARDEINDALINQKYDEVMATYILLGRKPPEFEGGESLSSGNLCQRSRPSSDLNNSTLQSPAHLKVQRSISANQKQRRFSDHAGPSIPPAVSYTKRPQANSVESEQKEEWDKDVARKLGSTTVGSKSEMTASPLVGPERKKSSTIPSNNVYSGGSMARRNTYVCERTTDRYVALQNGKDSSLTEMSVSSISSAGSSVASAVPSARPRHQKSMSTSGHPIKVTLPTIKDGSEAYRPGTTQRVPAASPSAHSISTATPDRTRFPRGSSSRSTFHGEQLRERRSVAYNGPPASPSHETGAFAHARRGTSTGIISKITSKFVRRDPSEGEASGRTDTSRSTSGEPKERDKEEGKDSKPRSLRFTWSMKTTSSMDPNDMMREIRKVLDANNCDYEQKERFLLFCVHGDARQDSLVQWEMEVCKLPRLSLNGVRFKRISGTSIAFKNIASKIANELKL

**Q.** Which IC50 does the source give for `O=C(Nc1c[nH]nc1-c1nc2ccc(CN3CCOCC3)cc2[nH]1)NC1CC1` [AT9283] here?
**A.** The IC50 was 185 nM.

**Q.** And the “Active (Measured)” value?
**A.** The value was 1.

**Q.** What about the “MARK1 inhibitor (result in words)” value of the same compound?
**A.** Its value is “true novel MARK1 active inhibitors”.

**Q.** With `CC(C)(C)NC[C@H](O)COc1cccc2c1CCCC2=O.Cl` [Levobunolol (hydrochloride)] as the compound, how does the “Active (Measured)” value read?
**A.** Its value is 0.

**Q.** For `CN1CCN(c2ccc(Nc3ncc4cc(C#N)c(=O)n(C5CCCC5)c4n3)cc2)CC1` [ON123300], which IC50 is on record?
**A.** Its IC50 is 219 nM.

**Q.** What about the “Active (Measured)” value of the same compound?
**A.** The value was 1.

**Q.** What about the “MARK1 inhibitor (result in words)” value of the same compound?
**A.** The value was “true novel MARK1 active inhibitors”.

**Q.** Which results are given for `CCS(=O)(=O)N1CC(CC#N)(n2cc(-c3ncnc4[nH]ccc34)cn2)C1` [Baricitinib]?
**A.** IC50: 166 nM; Active (Measured): 1; MARK1 inhibitor (result in words): true novel MARK1 active inhibitors

**Q.** How did the “Active (Measured)” value turn out when `COc1cc(Nc2c(C#N)cnc3cc(OCCCN4CCN(C)CC4)c(OC)cc23)c(Cl)cc1Cl` [Bosutinib] was run?
**A.** Its value is 0.

**Q.** Which “Active (Measured)” value does the source give for `C[C@@H](Oc1cc(-c2cnn(C3CCNCC3)c2)cnc1N)c1c(Cl)ccc(F)c1Cl` [Crizotinib] here?
**A.** Its value is 0.

**Q.** `CCCCCCCCc1ccc(CCC(N)(CO)CO)cc1` [fingolimod] was tested. Which “Active (Measured)” value did it give?
**A.** The value was 0.

**Q.** What does the source list for `CC[C@@H]1CN(C(=O)NCC(F)(F)F)C[C@@H]1c1cnc2cnc3[nH]ccc3n12` [Upadacitinib]?
**A.** IC50: 327 nM; Active (Measured): 1; MARK1 inhibitor (result in words): true novel MARK1 active inhibitors

**Q.** `Cc1cc(Nc2ncc(Cl)c(Nc3ccccc3S(=O)(=O)C(C)C)n2)c(OC(C)C)cc1C1CCNCC1` [Ceritinib] was tested. Which “Active (Measured)” value did it give?
**A.** Its value is 0.

**Q.** `C[C@@H]1CCN(C(=O)CC#N)C[C@@H]1N(C)c1ncnc2[nH]ccc12` [Tofacitinib citrate] was tested. Which “Active (Measured)” value did it give?
**A.** The value was 1.

**Q.** What about the “MARK1 inhibitor (result in words)” value of the same compound?
**A.** The value was “true novel MARK1 active inhibitors”.

**Q.** Which “Active (Measured)” value does the source give for `Cc1cc(C(C#N)c2ccc(Cl)cc2)c(Cl)cc1NC(=O)c1cc(I)cc(I)c1O` (stereo not drawn) [Closantel] here?
**A.** The value was 0.

**Q.** How did the “Active (Measured)” value turn out when `COc1cc(O)c2c(c1)oc(=O)c1c3cc(O)c(O)cc3oc21` [Wedelolactone] was run?
**A.** Its value is 0.
